Measured values published in US20240117431A1, “STEM-CELL BASED BIOMARKER DISCOVERY” (THE REGENTS OF THE UNIVERSITY OF CALIFORNIA, priority 2020, published 2024).

Key:
TgUPRT (wild type) = target: T1, TgUPRT (wild type) (Toxoplasma gondii, UniProt Q26998); experiment: Specific activity of TgUPRT variants with uracil analog substrates in vitro (phosphoribosyltransferase, HPLC); format: biochemical; conditions: 0.5 μg enzyme in 80 μL, 37° C., 2-5 min, substrates 1 mM, PBS pH 7.4; DMSO none (Uracil, 5-BrVUra), 1.6% (5-EtUra, 5-AU, 5AMU), 3.2% (5-VUra)
T1 construct: made in house; host or cells: E. coli BL21(DE3)
T1 sequence (Q26998 whole entry): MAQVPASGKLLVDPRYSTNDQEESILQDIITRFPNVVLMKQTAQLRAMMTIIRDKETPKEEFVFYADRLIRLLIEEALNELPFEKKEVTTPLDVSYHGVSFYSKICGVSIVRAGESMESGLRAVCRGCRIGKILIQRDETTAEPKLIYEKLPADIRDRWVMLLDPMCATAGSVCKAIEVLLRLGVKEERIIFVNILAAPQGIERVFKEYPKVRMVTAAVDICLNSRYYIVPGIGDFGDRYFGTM
Experimental: Enzyme activity assay: The standard activity assay was performed by incubating 10 μL of free extract or 0.5 μg of pure His-tag enzyme with 1 mM Phosphoribosyl pyrophosphate (PRPP), 1 mM uracil, 5 mM MgCl2 in 50 mM PBS buffer pH 7.4 in a final volume of 80 μL. The reaction mixture was incubated at 37° C. for 2-5 min (300 rpm). Enzyme was inactivated by adding 80 μL of cold methanol in ice-bath and heating for 5 min at 100° C. After centrifugation at 9000×g for 5 min, samples were half-diluted with water and the NMP production was analysed by HPLC to quantitatively measure the reaction products as described below in the analytical methods. All determinations were carried out in triplicate assuming Michaelis-Menten conditions, and the maximum error was below 5%. […]
Substrate specificity studies Enzymatic synthesis of the different pyrimidine nucleoside monophosphate (NMP) derivatives was carried out by incubating 0.5 μg of pure His-tag enzyme with 1 mM PRPP, 1 mM pyrimidine base and 5 mM MgCl2 in 50 mM PBS buffer pH 7.4 (1.6-3.2% v/v DSMO). […] Subsequently, the reaction mixture was processed as described above and the NMP production was analyzed by HPLC.
Analytical methods: The production of NMPs was quantitatively measured with an ACE EXCEL 5 μm CN-ES 250×4.6 mm equilibrated with 100% trimethyl ammonium acetate at a flow rate of 0.8 mL/min. […]

[1] = test system: GFP-3×MT-TgUPRT HEK293T cells co-cultured with mCherry cells; experiment: Co-culture RT-qPCR enrichment of GFP transcript over mCherry; format: cell-based
Experimental: FIGS. 10A, 10B, 100, 10D, 10E show characterizing the stringency of the 2 (5VU)-mutant TgUPRT pair. […] Cells were transfected with TgUPRT variants and incubated with 2 at 1 mM final concentration for 24h. 2 incorporation was imaged using two-step labeling (1) IEDDA using tetrazene-biotin then followed by Alexa488-streptavidin. […] Streptavidin-HRP (Strep-HRP) was used for assessment of biotin level resulting from clicked RNA, and methylene blue (MeBI) staining served as loading control. […] Cells were treated the same as in panel 10B and the RNA appended with biotin and enriched before RT RT-qPCR.
Co-culture of HEK cells containing GFP or mCherry expression plasmids: HEK293 (5×105) cells seeded in 6-well plate. Thirty-six hour post seeding, HEK cells were transfected with 1 μg of single plasmid containing EGFP, mCherry, EGFP-TgUPRT-WT, or EGFP-TgUPRT-Mut. Twenty-four hour post transfection, transiently transfected HEK cells were trypsinized and seeded into a 5 cm plate. Equal amounts of cells (approximately 2×106 in total) where 1×10^6 cells containing GFP or GFP-TgUPRT plasmids and 1×10^6 cells containing mCherry construct) were co-cultured. Three co-culture conditions are Condition (A): mCherry and EGFP, Condition (B): mCherry and EGFP-WT-TgUPRT, and Condition (C): mCherry and EGFP-3×MT-TgUPRT (pKN-CMV-EGFP-TgUPRT-Mut16 or -Mut17). […]

In the case of `C=Cc1c[nH]c(=O)[nH]c1=O` [compound 2, 5-Vinylpyrimidine-2,4(1H,3H)-dione], the “Specific Activity, TgUPRT” value (TgUPRT (wild type)) is reported as “undetectable activity” and the “enrichment of GFP transcript, triple mutant cells compared to no UPRT cells” value ([1]; {}) is reported as ~100 fold.

`C#Cc1c[nH]c(=O)[nH]c1=O` [compound 1, 5-ethynylpyrimidine-2,4(1H,3H)-dione] was tested, and the “Specific Activity, TgUPRT” value (TgUPRT (wild type)) was “reactive” and the “enrichment of GFP transcript in -UPRT cells” value ([1]; co-culture, RT-qPCR) was “Background enrichment”.
